Measured values: US20150203924A1, “[…] FOR HERBICIDE RESISTANCE IN PLANTS” (PURDUE RESEARCH FOUNDATION, priority 2013, published 2015)

Columns and labels:
[1] = test system: Ambrosia trifida L. (Giant ragweed); experiment: Tissue specific (differential exposure) glyphosate treatment, translocation; details: uncovered portions sprayed with 0.7 kg ae/ha
[2] = test system: Ambrosia trifida L. (Giant ragweed); experiment: 31P NMR imaging of glyphosate infiltrated leaves; format: in vivo
EPSPS = EPSPS sensitivity to glyphosate challenge; format: biochemical, Ambrosia trifida
[3] = test system: Ambrosia trifida L. (Giant ragweed); experiment: H2O2 accumulation in glyphosate treated leaves by DAB staining; format: in vivo
Method: In an embodiment, the H2O2 presence is visually detected after 3,3′-diaminobenzidine (DAB) staining using procedures described by Thordal-Christensen et al., ([…]). […] At each harvested time, leaf discs are floated in a solution of DAB-Hydrochloric acid (HCl) (1 mg/ml) (Sigma, St. Louis, Mo.) in a beaker at room temperature and allowed to absorb the solution through the cut ends. After 3 hours of incubation, leaf discs are decolorized by boiling in 90% ethanol for ten minutes to remove chlorophyll, before visual examination. Brown precipitates form at sites of H2O2 accumulation and data collected will be by visual detection of H2O2 accumulation as noted by intensity of brown precipitates on treated leave discs. The hypersensitive reaction (HR) has been used as a visual marker of biotic interactions and induction of pathogen response (PR) genes (S) but this has been also shown in plant responses to abiotic stresses such as excess excitation energy (EEE) (Muhlenbock et al., 2008).

[4] = test system: Ambrosia trifida L. (Giant ragweed); experiment: Chlorophyll fluorescence measurements / rapid necrosis of mature leaves after glyphosate treatment; format: in vivo; details: 1x field rate glyphosate
Method: To quantify early physiological reactions related to this resistance mechanism, a method was developed using chlorophyll fluorescence measurements to determine photosynthetic activity. […] Treatments at each time point consisted of glyphosate-resistant and glyphosate-sensitive A. trifida untreated and treated leaves.
In an embodiment, to measure fluorescence the maximum quantum efficiency of photosystem II (Fv/Fm) is determined using an Imaging-PAM fluorometer IMAG-MAX/GS with a mounted LED-Array Illumination Unit IMAG-MAX/L and CCD-Camera (Heinz Walz GmbH, 91090 Effeltrich, Germany) along with ImagingWin software. Briefly, dark acclimated plants are exposed to a short saturating light pulse to maximally reduce the QA pool and where fluorescence is increased to maximum values (Fm) and this is followed by a weak non-actinic modulated measuring light to determine the minimal level of fluorescence (F0) (Oxborough, 2004).

[5] = test system: Ambrosia trifida L. (Giant ragweed); experiment: 14C-glyphosate uptake and translocation; format: in vivo; details: two mature leaves treated with 14C-glyphosate
Excerpt: In the study, the treated leaf included two mature leaves treated with ^14C-glyphosate. Mobilized distribution includes untreated mature leaves, meristems and roots.

[6] = test system: Ambrosia trifida L. (Giant ragweed); experiment: Foliar glyphosate treatment of whole plants: fresh weight and visual injury; format: in vivo
Excerpt: Significance (<0.05) between populations (within rates) is indicated by letters (a, b). […] Significance (<0.05) between rates (within populations) is indicated by letters (a, b, c).
Foliar application of herbicide solution was applied using a compressed-air bench top track sprayer at a pressure of 249 kPa and a volume of 187 L of spray solution ha-1. […] All plants were at the third node growth stage at the time of treatment.

[7] = three weeks after treatment, 1x glyphosate field rate

O=C(O)CNCP(=O)(O)O [glyphosate, N-(phosphonomethyl)glycine]
translocation of glyphosate away from treated tissues, glyphosate-resistant plants [1]: did not translocate glyphosate | translocation of glyphosate away from treated tissues, glyphosate-sensitive plants [1]: glyphosate-sensitive plants did | time to rapid cell death, glyphosate-resistant plants [2]: ≤ 16 h | cell death, glyphosate-sensitive plants ([2]; within 16 hours): limited cell death | EPSPS sensitivity to glyphosate challenge, glyphosate-resistant vs glyphosate-sensitive plants (EPSPS): no difference | H2O2 production, glyphosate sensitive leaves [3]: no H2O2 production | time to significant H2O2 accumulation, mature leaves of glyphosate-resistant plants [3]: ≤ 2 h | time to rapid necrosis in mature leaves, glyphosate-resistant plants [4]: ≤ 12 h | absorbed glyphosate translocated, glyphosate resistant plants [5]: 28% | absorbed glyphosate translocated, glyphosate-sensitive plants [5]: 54% | visual plant injury of resistant plants compared to sensitive plants ([6]; 1x, 2x, 4x treatment levels, after twenty-one days): decreased visual injury compared to the sensitive plants | visual injury rating (% dead), resistant plants compared to sensitive plants ([6]; 3 weeks after treatment, n=63): much lower rating of % dead compared to the sensitive plants | plant response, glyphosate-resistant plant [6, 7]: recovered from the glyphosate treatment | plant response, glyphosate-sensitive plant [6, 7]: extremely decline | fresh weight of resistant plants compared to sensitive plants ([6]; whole plant tissue 21 days after treatment, 1x=0.7, 2x=1.4, 4x=2.8 kg ae ha-1): increased fresh weight at all treatment levels compared to the sensitive plants
